Cc1ccc(-c2ccccc2C#N)cc1
solubility (mole fraction)
Conditions	268.05 K	272.97 K	278.05 K	283.15 K	288.15 K	293.15 K	298.13 K	303.05 K
in ethanol	0.0142	0.0159	0.0168	0.0205	0.0284	0.041	0.0604	0.0958
in ethyl acetate	0.163	0.196	0.237	0.284	0.341	0.412	0.482	0.569

— BigSolDB 2.1
